Read-outs that look alike come from different tables or passages of the source.
Experiments:
Type in all cases: in vivo
Conditions in all cases: 144 h, read-out: mortality rate
[1] = system: diamondback moth [コナガ(Plutella xylostella)]; test: 試験例1 コナガに対する殺虫試験 (insecticidal test, 2nd instar larvae)
[2] = system: common cutworm [ハスモンヨトウ(Spodoptera litura)]; test: 試験例2 ハスモンヨトウに対する殺虫試験 (insecticidal test, 2nd instar larvae)
[3] = system: oriental tea tortrix [チャハマキ(Homona magnanima)]; test: 試験例3 チャハマキに対する殺虫試験 (insecticidal test, 2nd instar larvae)
[4] = system: cucurbit leaf beetle [ウリハムシ(Aulacophora femoralis)]; test: 試験例4 ウリハムシに対する殺虫試験 (insecticidal test, 2nd instar larvae)
[5] = 100 ppm, leaf dip, 2nd instar, 6 days, 25℃

Row | Structure (SMILES) | mortality at 100 ppm [1] [%] | mortality at 100 ppm [2] [%] | mortality at 100 ppm [3] [%] | mortality at 500 ppm [4] [%] | mortality at 100 ppm [1, 5] [%] | mortality at 100 ppm [2, 5] [%] | mortality at 100 ppm [3, 5] [%] | mortality at 500 ppm ([4]; 500 ppm, leaf dip, 2nd instar, 6 days, 25℃) [%]
1 | Cc1cc(C(O)(c2ccc(OC(F)(F)F)cc2)C(F)(F)F)ccc1NC(=O)c1cccc(I)c1C(=O)NC(C)C (centres unmarked) [1-009] | 100 | ≥ 80 | ≥ 80 | 100 |  |  |  | 
2 | Cc1cc(C(O)(c2ccc(OC(F)(F)Br)cc2)C(F)(F)F)ccc1NC(=O)c1cccc(I)c1C(=O)NC(C)C (centres unmarked) [1-010] |  |  |  |  | 100 | ≥ 80 | ≥ 80 | 100
3 | Cc1cc(C(O)(c2ccc(OS(C)(=O)=O)cc2)C(F)(F)F)ccc1NC(=O)c1cccc(I)c1C(=O)NC(C)C (centres unmarked) [1-015] | 100 | ≥ 80 |  |  |  |  |  | 
4 | Cc1cc(C(O)(c2ccc3c(c2)OC(F)(F)C(F)(F)O3)C(F)(F)F)ccc1NC(=O)c1cccc(I)c1C(=O)NC(C)C (centres unmarked) [1-028] | 100 | ≥ 80 | ≥ 80 | 100 |  |  |  | 
5 | Cc1cc(C(C)(O)c2ccc(C(F)(F)F)cn2)ccc1NC(=O)c1cccc(I)c1C(=O)NC(C)C (centres unmarked) [2-001] | 100 | ≥ 80 |  | 100 |  |  |  | 
6 | Cc1cc(C(O)(COc2ccc(Cl)cc2)C(F)(F)F)ccc1NC(=O)c1cccc(I)c1C(=O)NC(C)C (centres unmarked) [2-004] | 100 | ≥ 80 |  | 100 |  |  |  | 
7 | Cc1cc(C(O)(C(F)(F)F)C(F)(F)Oc2ccc(Cl)cc2)ccc1NC(=O)c1cccc(I)c1C(=O)NC(C)C (centres unmarked) [2-008] | 100 | ≥ 80 | ≥ 80 | 100 |  |  |  | 
8 | Cc1cc(C(O)(C=Cc2ccc(Cl)cc2)C(F)(F)F)ccc1NC(=O)c1cccc(I)c1C(=O)NC(C)C (centres unmarked) [2-018] | 100 | ≥ 80 | ≥ 80 | 100 |  |  |  | 
9 | COC(c1ccc(Cl)cc1)(c1ccc(NC(=O)c2cccc(I)c2C(=O)NC(C)C)c(C)c1)C(F)(F)F (centres unmarked) [3-002] | 100 | ≥ 80 | ≥ 80 |  |  |  |  | 
10 | Cc1cc2c(cc1NC(=O)c1cccc(I)c1C(=O)NC(C)C)OC(F)(F)C2(O)C(F)(F)F (centres unmarked) [4-002] | 100 | ≥ 80 | ≥ 80 | 100 |  |  |  | 
